Laboratory results reported in PMC8231556, “Inhibiting Endothelial Cell Function in Normal and Tumor Angiogenesis Using BMP Type I Receptor Macrocyclic Kinase Inhibitors” (Cancers, 2021).

Test system: constitutively active ALK2 (caALK2)
Test: caALK2-induced BRE-Luc reporter activity in C2C12 cells
Assay type: cell-based
Conditions: C2C12 cells, 0.1, 0.5 or 1 μM, 16 hours
Excerpt: To further investigate and validate the selective inhibitory effects of OD16 and OD29 toward BMP9/ALK1 and BMP6/ALK2 signaling, we transfected C2C12 myoblast cells with constitutively active mutant ALK1 and ALK2 (caALK1 and caALK2). These constitutively active receptors signal in the absence of exogenous ligands and allow for a more direct assessment of inhibitory effects that are elicited by kinase receptor inhibitors.
Figure S2. Structural model of (A) LDN−193189, (B) OD16 (grey) overlay with LDN−193189 (green), (C) OD29 (grey) over-lay with LDN−193189 (green) bind to the ALK1 hinge region in the ATP pocket.
Figure S3. RT-qPCR analysis of the ALK1, ALK2 and GAPDH mRNA expression in EA.hy926 and HUVEC cells. Mean Cq and Cq standard error of the mean (SEM) are listed. Representative results from three independent experiments are shown.
Figure S4. OD29 and OD16 are two small molecule BMP type I receptors kinase inhibitors in C2C12 cells. Effects of vehicle control (DMSO), LDN−193189, OD16 or OD29 on BRE transcriptional luciferase reporter activity induced by the ectopic expression of caALK1 (A) or caALK2 (B) in C2C12 cells. Cells were incubated with the inhibitors in three different con-centrations (0.1 μM, 0.5 μM or 1 μM) for 16 hours. Representative results from three biologically independent experiments are shown as mean ± SD. NS, not significant; * p < 0.05, ** p < 0.005; *** p < 0.001. […]

Structure (SMILES): c1ccc2c(-c3cnn4cc(-c5ccc(N6CCNCC6)cc5)cnc34)ccnc2c1 [LDN-193189, reference compound]
- effect on caALK2-induced BRE-Luc reporter activity: in a dose-dependent manner attenuated
